In ChEMBL document CHEMBL3792339, “Identification of new quinic acid derivatives as histone deacetylase inhibitors by fluorescence-based cellular assay” (Bioorg Med Chem Lett, 2016):
The source made the active and inactive calls. The calls are words filed in the database; no cut-off is given here.

Assays:
[1] = test system: C127-LT; experiment: Inhibition of HDAC in mouse C127-LT cells assessed as activation of EGFP expression at 10 uM after 24 hrs by fluorescence microscopy; assay type: cell-based
[2] = test system: C127-LT; experiment: Inhibition of HDAC in mouse C127-LT cells assessed as activation of EGFP expression at 1 uM after 24 hrs by fluorescence microscopy; assay type: cell-based
[3] = biological target: Histone deacetylase; experiment: Inhibition of HDAC in human HeLa cells using Boc-Lys(AC)-AMC as substrate after 24 to 48 hrs by spectrofluorometry; assay type: cell-based
[4] = biological target: Histone deacetylase; experiment: Inhibition of HDAC in human HeLa nuclear extract using fluor de lys as substrate after 10 to 15 mins by spectrofluorometry; assay type: protein assay
[5] = biological target: T1, Histone deacetylase (Homo sapiens) (UniProt Q13547+O15379+Q9UBN7+Q92769+Q9UQL6+Q8WUI4+Q9BY41+Q96DB2+P56524+Q9UKV0+Q969S8); experiment: Inhibition of HDAC in human HeLa nuclear extract assessed as accumulation of acetylated histone H3 at 0.1 to 100 uM after 24 hrs by western blot analysis; assay type: protein assay
[6] = biological target: T1, Histone deacetylase (Homo sapiens); settings: at 10 to 25 µM
Description: Competitive inhibition of HDAC in human HeLa nuclear cells at 10 to 25 uM using Boc-acetyl-lysine-AMC as substrate after 30 mins by Lineweaver-Burk plot analysis

[7] = test system: C127-LT; experiment: Inhibition of HDAC in mouse C127-LT cells assessed as activation of EGFP expression at 200 nM after 24 hrs by fluorescence microscopy; assay type: cell-based

Compound | inhibition [1] | further results
COc1cc(-c2oc3cc(O)cc(O)c3c(=O)c2O[C@@H]2O[C@H](CO[C@@H]3O[C@@H](C)[C@H](O)[C@@H](O)[C@H]3O)[C@@H](O)[C@H](O)[C@H]2O)ccc1O | Active | 
COc1ccc2cc3[n+](cc2c1OC)CCc1cc2c(cc1-3)OCO2 | Active | 
Nc1ccccc1NC(=O)c1ccc(CNC(=O)OCc2cccnc2)cc1 | Active | inhibition [2]: Active
O=C(/C=C/c1ccc(O)c(O)c1)O[C@@H]1C[C@@](O)(C(=O)O)C[C@@H](O)[C@@H]1O | inactive | IC50 [3]: > 200 µM; IC50 [4]: 170.4 µM
C=C1CC[C@@H]2[C@](C)(CCC[C@]2(C)C(=O)O)[C@H]1CCC1=CC(OCCCC)OC1=O (some centres undefined) | inactive | 
COC(=O)[C@]1(O)C[C@@H](OC(=O)/C=C/c2ccc(O)c(O)c2)[C@@H](O)[C@H](OC(=O)/C=C/c2ccc(O)c(O)c2)C1 | Active | IC50 [3]: 7.59 µM; inhibition [5]: Active; IC50 [4]: 4.99 µM; inhibition [6]: Active
O=C(/C=C/c1ccc(O)c(O)c1)O[C@@H]1C[C@](O)(C(=O)O)C[C@@H](O)[C@H]1O [CHLOROGENIC ACID] | inactive | IC50 [3]: > 200 µM; IC50 [4]: > 200 µM
COc1cc2c(cc1OC)[C@@H]1Cc3ccc(O)c(O)c3CN1CC2 | Active | 
O=C(/C=C/c1ccc(O)c(O)c1)O[C@@H]1C[C@](O)(C(=O)O)C[C@@H](OC(=O)/C=C/c2ccc(O)c(O)c2)[C@H]1O | inactive | IC50 [3]: > 500 µM; IC50 [4]: 143.24 µM
C=C1C(=O)O[C@@H]2[C@H]3C(=C)[C@@H](O)C[C@H]3C(=C)C[C@H](OC(=O)C(C)(O)CO)[C@@H]12 (some centres undefined) | inactive | 
COc1cc2c3c(cc4ccccc4c3c1O)NC2=O | inactive | 
C=C(CO)C(=O)O[C@H]1CC(=C)[C@@H]2C[C@H](O)C(=C)[C@@H]2[C@H]2OC(=O)C(=C)[C@@H]21 | inactive | 
CC(/C=C/C(=O)NO)=C\[C@@H](C)C(=O)c1ccc(N(C)C)cc1 |  | inhibition [7]: Active
CC(=O)OCCc1ccc(O)c(O)c1 | Active | 
C=C1C(=O)O[C@@H]2[C@H]3C(=C)[C@@H](O)C[C@H]3C(=C)C[C@H](OC(=O)CC(C)(C)O)[C@@H]12 | inactive | 
C=C1[C@@H]2[C@H]3OC(=O)[C@@H](CN[C@H](C(=O)O)C(C)C)[C@@H]3[C@@H](O)CC(=C)[C@@H]2C[C@@H]1O | inactive | 
C=C1[C@@H]2[C@H]3OC(=O)[C@@H](CN4CCC[C@H]4C(=O)O)[C@@H]3[C@@H](OC(=O)C(C)(O)CO)CC(=C)[C@@H]2C[C@@H]1O (some centres undefined) | inactive | 
C=C1[C@@H]2[C@H]3OC(=O)[C@@H](CN[C@@H](Cc4c[nH]c5ccccc45)C(=O)O)[C@@H]3[C@@H](O)CC(=C)[C@@H]2C[C@@H]1O | inactive | 
